{"source": "patent US9993494B2", "about": "“Compositions and methods for treating fibrotic disease” (eFFECTOR Therapeutics, Inc., priority 2014, dated 2018)", "test_system": "normal human lung fibroblasts", "assay": "Ribosomal profiling: translational efficiency in TGFβ-treated fibroblasts", "assay_type": "cell-based", "details": "TGFβ-treated fibroblasts", "description": "Ribosomal profiling allows for measurement of changes in transcription and translation on a genome-wide basis accompanying TGFβ-dependent transformation of fibroblasts to myofibroblasts. Ribosomal profiles of the TGFβ-treated fibroblasts from Example 1 (about 6×10^6 cells/10 cm plate) were prepared and analyzed for changes in translational efficiencies with respect to potential disease-associated cellular changes accompanying this TGFβ-induced transformation.\nBriefly, cells were washed with cold PBS supplemented with cycloheximide and lysed with 1× mammalian cell lysis buffer for 10 minutes on ice. Lysates were clarified by centrifugation for 10 minutes at 14,000 rpm and supernatants were collected. Cell lysates were processed to generate ribosomal protected fragments and total mRNA according to the instructions included with the ARTseq Ribosome Profiling Kit (Illumina, San Diego, Calif.). Sequencing of total RNA (RNA) and of ribosome-protected fragments of RNA (RPF) was carried out using RNA-Seq methodology according to the manufacturer's instructions (Illumina). To analyze the ribosomal profiles, RNA-Seq reads were processed with tools from the FASTX-Toolkit (fastq_quality_trimmer, fastx_clipper and fastx_trimmer). Unprocessed and processed reads were evaluated for a variety of quality measures using FastQC, and processed reads were mapped to the human genome using TopHat (see, e.g., Trapnell et al., Bioinformatics 25:1105, 2009). Gene-by-gene assessment of the number of fragments strictly and uniquely mapping to the coding region of each gene was conducted using HTSeq-count, a component of the HTSeq package. […] Genes with low counts in either RPF or RNA were excluded from differential analyses. Pathway and network analyses of differential data were conducted using Ingenuity Pathway Analysis (IPA).", "data": [{"smiles": "Cc1ccc(=O)n(-c2ccccc2)c1", "note": "[pirfenidone, 5-methyl-1-phenylpyridin-2-one]", "values": [{"measurement": "renormalizing the translational profile of NECAB3", "setting": "ENSG00000125967", "value": "− (− = <0.9)"}, {"measurement": "renormalizing the translational profile of COX7C", "setting": "ENSG00000127184", "value": "− (− = <0.9)"}, {"measurement": "renormalizing the translational profile of LIF", "setting": "ENSG00000128342", "value": "− (− = <0.9)"}, {"measurement": "renormalizing the translational profile of MTUS1", "setting": "ENSG00000129422", "value": "++ (++ = 1.5 to 2.0)"}, {"measurement": "renormalizing the translational profile of ARHGEF6", "setting": "ENSG00000129675", "value": "− (− = <0.9)"}, {"measurement": "renormalizing the translational profile of RPL36", "setting": "ENSG00000130255", "value": "+ (+ = 0.9 to 1.5)"}, {"measurement": "renormalizing the translational profile of GDF15", "setting": "ENSG00000130513", "value": "− (− = <0.9)"}, {"measurement": "renormalizing the translational profile of ASS1", "setting": "ENSG00000130707", "value": "− (− = <0.9)"}, {"measurement": "renormalizing the translational profile of EIF2S3", "setting": "ENSG00000130741", "value": "− (− = <0.9)"}, {"measurement": "renormalizing the translational profile of RPL27", "setting": "ENSG00000131469", "value": "− (− = <0.9)"}, {"measurement": "renormalizing the translational profile of MATN3", "setting": "ENSG00000132031", "value": "− (− = <0.9)"}, {"measurement": "renormalizing the translational profile of PPARG", "setting": "ENSG00000132170", "value": "+++ (+++ = >2.0)"}, {"measurement": "renormalizing the translational profile of KDM6B", "setting": "ENSG00000132510", "value": "− (− = <0.9)"}, {"measurement": "renormalizing the translational profile of RARRES3", "setting": "ENSG00000133321", "value": "− (− = <0.9)"}, {"measurement": "renormalizing the translational profile of BIVM", "setting": "ENSG00000134897", "value": "− (− = <0.9)"}, {"measurement": "renormalizing the translational profile of ATP5G2", "setting": "ENSG00000135390", "value": "+ (+ = 0.9 to 1.5)"}, {"measurement": "renormalizing the translational profile of KRT7", "setting": "ENSG00000135480", "value": "++ (++ = 1.5 to 2.0)"}, {"measurement": "renormalizing the translational profile of HNRNPA1", "setting": "ENSG00000135486", "value": "− (− = <0.9)"}, {"measurement": "renormalizing the translational profile of IL6", "setting": "ENSG00000136244", "value": "− (− = <0.9)"}, {"measurement": "renormalizing the translational profile of RPL35", "setting": "ENSG00000136942", "value": "− (− = <0.9)"}, {"measurement": "renormalizing the translational profile of NOV", "setting": "ENSG00000136999", "value": "− (− = <0.9)"}, {"measurement": "renormalizing the translational profile of IER3", "setting": "ENSG00000137331", "value": "− (− = <0.9)"}, {"measurement": "renormalizing the translational profile of DDX60", "setting": "ENSG00000137628", "value": "− (− = <0.9)"}, {"measurement": "renormalizing the translational profile of RPLP1", "setting": "ENSG00000137818", "value": "+ (+ = 0.9 to 1.5)"}, {"measurement": "renormalizing the translational profile of PAQR5", "setting": "ENSG00000137819", "value": "− (− = <0.9)"}, {"measurement": "renormalizing the translational profile of AOX1", "setting": "ENSG00000138356", "value": "− (− = <0.9)"}, {"measurement": "renormalizing the translational profile of FGF5", "setting": "ENSG00000138675", "value": "+ (+ = 0.9 to 1.5)"}, {"measurement": "renormalizing the translational profile of PDE5A", "setting": "ENSG00000138735", "value": "− (− = <0.9)"}, {"measurement": "renormalizing the translational profile of GAS2L3", "setting": "ENSG00000139354", "value": "− (− = <0.9)"}, {"measurement": "renormalizing the translational profile of DIAPH3", "setting": "ENSG00000139734", "value": "++ (++ = 1.5 to 2.0)"}, {"measurement": "renormalizing the translational profile of MYO19", "setting": "ENSG00000141140", "value": "− (− = <0.9)"}, {"measurement": "renormalizing the translational profile of RPL13A", "setting": "ENSG00000142541", "value": "+ (+ = 0.9 to 1.5)"}, {"measurement": "renormalizing the translational profile of RPL11", "setting": "ENSG00000142676", "value": "− (− = <0.9)"}, {"measurement": "renormalizing the translational profile of ACTA1", "setting": "ENSG00000143632", "value": "+ (+ = 0.9 to 1.5)"}, {"measurement": "renormalizing the translational profile of PLEKHA6", "setting": "ENSG00000143850", "value": "− (− = <0.9)"}, {"measurement": "renormalizing the translational profile of RPL32", "setting": "ENSG00000144713", "value": "− (− = <0.9)"}, {"measurement": "renormalizing the translational profile of RPL37", "setting": "ENSG00000145592", "value": "+ (+ = 0.9 to 1.5)"}, {"measurement": "renormalizing the translational profile of BTF3", "setting": "ENSG00000145741", "value": "− (− = <0.9)"}, {"measurement": "renormalizing the translational profile of HIGD2A", "setting": "ENSG00000146066", "value": "+ (+ = 0.9 to 1.5)"}, {"measurement": "renormalizing the translational profile of CREB5", "setting": "ENSG00000146592", "value": "+ (+ = 0.9 to 1.5)"}, {"measurement": "renormalizing the translational profile of DENND2A", "setting": "ENSG00000146966", "value": "− (− = <0.9)"}, {"measurement": "renormalizing the translational profile of RPL10", "setting": "ENSG00000147403", "value": "+ (+ = 0.9 to 1.5)"}, {"measurement": "renormalizing the translational profile of EIF3H", "setting": "ENSG00000147677", "value": "− (− = <0.9)"}, {"measurement": "renormalizing the translational profile of RPL7A", "setting": "ENSG00000148303", "value": "+ (+ = 0.9 to 1.5)"}, {"measurement": "renormalizing the translational profile of EIF3M", "setting": "ENSG00000149100", "value": "− (− = <0.9)"}, {"measurement": "renormalizing the translational profile of FAU", "setting": "ENSG00000149806", "value": "− (− = <0.9)"}, {"measurement": "renormalizing the translational profile of CCDC102B", "setting": "ENSG00000150636", "value": "++ (++ = 1.5 to 2.0)"}, {"measurement": "renormalizing the translational profile of FRMD4A", "setting": "ENSG00000151474", "value": "− (− = <0.9)"}, {"measurement": "renormalizing the translational profile of HOMER1", "setting": "ENSG00000152413", "value": "− (− = <0.9)"}, {"measurement": "renormalizing the translational profile of PLEKHH2", "setting": "ENSG00000152527", "value": "− (− = <0.9)"}, {"measurement": "renormalizing the translational profile of ANKH", "setting": "ENSG00000154122", "value": "− (− = <0.9)"}, {"measurement": "renormalizing the translational profile of ABCA6", "setting": "ENSG00000154262", "value": "− (− = <0.9)"}, {"measurement": "renormalizing the translational profile of OBSCN", "setting": "ENSG00000154358", "value": "− (− = <0.9)"}, {"measurement": "renormalizing the translational profile of ADAMTS5", "setting": "ENSG00000154736", "value": "− (− = <0.9)"}, {"measurement": "renormalizing the translational profile of OXA1L", "setting": "ENSG00000155463", "value": "− (− = <0.9)"}, {"measurement": "renormalizing the translational profile of C9orf85", "setting": "ENSG00000155621", "value": "− (− = <0.9)"}, {"measurement": "renormalizing the translational profile of RPL30", "setting": "ENSG00000156482", "value": "+ (+ = 0.9 to 1.5)"}, {"measurement": "renormalizing the translational profile of EEF1A1", "setting": "ENSG00000156508", "value": "+ (+ = 0.9 to 1.5)"}, {"measurement": "renormalizing the translational profile of NRG1", "setting": "ENSG00000157168", "value": "− (− = <0.9)"}, {"measurement": "renormalizing the translational profile of ADAMTS4", "setting": "ENSG00000158859", "value": "− (− = <0.9)"}, {"measurement": "renormalizing the translational profile of RPL8", "setting": "ENSG00000161016", "value": "− (− = <0.9)"}, {"measurement": "renormalizing the translational profile of RPL26", "setting": "ENSG00000161970", "value": "+ (+ = 0.9 to 1.5)"}, {"measurement": "renormalizing the translational profile of RPL29", "setting": "ENSG00000162244", "value": "− (− = <0.9)"}, {"measurement": "renormalizing the translational profile of CAMK2N1", "setting": "ENSG00000162545", "value": "− (− = <0.9)"}, {"measurement": "renormalizing the translational profile of IGFBP7", "setting": "ENSG00000163453", "value": "− (− = <0.9)"}, {"measurement": "renormalizing the translational profile of RPL22L1", "setting": "ENSG00000163584", "value": "+ (+ = 0.9 to 1.5)"}]}]}
